Experimental data published in publication PMC8286840, “Identifying SARS-CoV-2 antiviral compounds by screening for small molecule inhibitors of Nsp3 papain-like protease” (Biochemical Journal, 2021).
Counter-ions that a name gives are not always drawn. Like-named read-outs stand apart in the source and are kept apart here. Where a SMILES comes first, the peptide text is derived from it. Bridges are numbered along the chain shown (N, C = ends). [ ]: non-standard residue; d: D form. 2Nal = N[C@@H](Cc1ccc2ccccc2c1)C(=O)O; Lys(iPr) = CC(C)NCCCC[C@H](N)C(=O)O

How the values were obtained:
[1] = biological target: T1, SARS-CoV-2 PLpro (nsp3 1564–1878) (Severe acute respiratory syndrome coronavirus 2, UniProt P0DTD1); test: biochemical; design: FRET-quenched peptide (Pro3) cleavage by PLpro, 10 min pre-incubation, slope over 20 min, normalised to no-compound control; conditions: low concentration screen, read-out: % of control remaining
[2] = biological target: T1, SARS-CoV-2 PLpro (nsp3 1564–1878); test: biochemical; design: FRET-quenched peptide (Pro3) cleavage by PLpro, 10 min pre-incubation, slope over 20 min, normalised to no-compound control; conditions: high concentration screen, read-out: % of control remaining

`O=C(O[C@@H]1C[C@@H]2C[C@H]3C[C@H](C1)N2CC3=O)c1c[nH]c2ccccc12` [Dolasetron (Mesylate hydrate)] gave a remaining activity at 1.25 µM ([1]; Well no.=7381) of 108% and a remaining activity at 3.75 µM ([2]; Well no.=7381) of 98%.
With `Cc1ccc(N(CC2=NCCN2)c2cccc(O)c2)cc1` [Phentolamine mesylate] the remaining activity at 1.25 µM ([1]; Well no.=1253) was 104% and the remaining activity at 3.75 µM ([2]; Well no.=1253) was 106%.
`CCc1cccc(CC)c1NC(=O)N1Cc2[nH]nc(NC(=O)c3ccc(N4CCN(C)CC4)cc3)c2C1` [PHA-680632] gave a remaining activity at 1.25 µM ([1]; Well no.=4865) of 97.9% and a remaining activity at 3.75 µM ([2]; Well no.=4865) of 101%.
Compound `O=C(NC[C@H]1CN(c2ccc(N3CCOCC3=O)cc2)C(=O)O1)c1ccc(Cl)s1` [Rivaroxaban] has a remaining activity at 1.25 µM ([1]; Well no.=8390) of 93.8% and a remaining activity at 3.75 µM ([2]; Well no.=8390) of 88.4%.
With `CN1CCc2cc3c(cc2C(=O)Cc2cc4c(cc2C1)OCO4)OCO3` [Protopine] the remaining activity at 1.25 µM ([1]; Well no.=3195) was 105% and the remaining activity at 3.75 µM ([2]; Well no.=3195) was 104%.
With `CNC(=O)c1cc(COc2nnc(Nc3ccc(Cl)cc3)c3ccoc23)ccn1` [Telatinib (BAY 57-9352)] the remaining activity at 1.25 µM ([1]; Well no.=4858) was 99.7% and the remaining activity at 3.75 µM ([2]; Well no.=4858) was 104%.
In the case of `CC(COc1ccccc1)N(CCCl)Cc1ccccc1` (stereo not drawn) [Phenoxybenzamine.HCl], the remaining activity at 1.25 µM ([1]; Well no.=1761) is reported as 102% and the remaining activity at 3.75 µM ([2]; Well no.=1761) is reported as 101%.
`CC[C@]1(O)C[C@H]2CN(CCc3c([nH]c4ccccc34)[C@@](C(=O)OC)(c3cc4c(cc3OC)N(C=O)[C@H]3[C@@](O)(C(=O)OC)[C@H](OC(C)=O)[C@]5(CC)C=CCN6CC[C@]43[C@@H]65)C2)C1` [Vincristine sulfate] was tested, and the remaining activity at 1.25 µM ([1]; Well no.=1194) was 97.3%, the remaining activity at 1.25 µM ([1]; Well no.=2035) was 104% and the remaining activity at 1.25 µM ([1]; Well no.=3226) was 102%. For the same compound, the remaining activity at 3.75 µM ([2]; Well no.=1194) was 97.6% and the remaining activity at 3.75 µM ([2]; Well no.=3226) was 105%.
With `Nc1cccc2c1C(=O)N(C1CCC(=O)NC1=O)C2=O` (stereo not drawn) [Pomalidomide] the remaining activity at 1.25 µM ([1]; Well no.=4963) was 100% and the remaining activity at 3.75 µM ([2]; Well no.=4963) was 96.3%.
`Cc1c(Cl)cccc1Nc1ccccc1C(=O)O` [Tolfenamic acid] showed a remaining activity at 1.25 µM ([1]; Well no.=1996) of 97.1% and a remaining activity at 3.75 µM ([2]; Well no.=1996) of 99.1%.
`CC(C)NCCCC[C@H](NC(=O)[C@H]1CCC(=O)N[C@@H](Cc2ccccc2)C(=O)N[C@@H](Cc2ccc(O)cc2)C(=O)N[C@@H](CCCCNC(C)C)C(=O)N[C@H](CCCN=C(N)N)C(=O)N[C@@H](Cc2ccc3ccccc3c2)C(=O)NCC(=O)N1)C(N)=O` [LY2510924] (FY[Lys(iPr)][dR][2Nal]G[dE][Lys(iPr)]-NH2; lactam N-7) was tested, and the remaining activity at 1.25 µM ([1]; Well no.=8513) was 101% and the remaining activity at 3.75 µM ([2]; Well no.=8513) was 102%.
`CCOc1ccc2ccccc2c1C(=O)N[C@@H]1C(=O)N2[C@@H]1SC(C)(C)[C@@H]2C(=O)O` [Nafcillin Sodium] showed a remaining activity at 1.25 µM ([1]; Well no.=4690) of 104% and a remaining activity at 3.75 µM ([2]; Well no.=4690) of 101%.
In the case of `CC1=C(/C=C/C(C)=C/C=C/C(C)=C/C=C/C=C(C)/C=C/C=C(C)/C=C/C2=C(C)C(=O)CCC2(C)C)C(C)(C)CCC1=O` [Canthaxanthin], the remaining activity at 1.25 µM ([1]; Well no.=1791) is reported as 105%, the remaining activity at 1.25 µM ([1]; Well no.=4147) is reported as 93.8% and the remaining activity at 3.75 µM ([2]; Well no.=1791) is reported as 104%. It also gave a remaining activity at 3.75 µM ([2]; Well no.=4147) of 100%.
For `O=C(/C=C/c1ccc(O)cc1)c1ccc(O)cc1O` [Isoliquiritigenin], the remaining activity at 1.25 µM ([1]; Well no.=963) was 99.7% and the remaining activity at 3.75 µM ([2]; Well no.=963) was 101%.
In the case of `COC(=O)[C@@H]1[C@H]2C[C@H]3c4[nH]c5ccccc5c4CCN3C[C@@H]2CC[C@@H]1O` [Yohimbine (Hydrochloride)], the remaining activity at 1.25 µM ([1]; Well no.=8337) is reported as 103% and the remaining activity at 3.75 µM ([2]; Well no.=8337) is reported as 97.4%.
Work on `Cc1ccc2c(c1)C1(CCN(CCc3nc(-c4ccccc4)oc3C)CC1)OC(=O)N2` [6-methyl-1'-(2-(5-methyl-2-phenyloxazol-4-yl)ethyl)spiro[benzo[d][1,3]oxazine-4,4'-piperidin]-2(1H)-one] yielded a remaining activity at 1.25 µM ([1]; Well no.=5915) of 93.5% and a remaining activity at 3.75 µM ([2]; Well no.=5915) of 93.6%.
Work on `CCOc1nc2cccc(C(=O)O)c2n1Cc1ccc(-c2ccccc2-c2noc(=O)[nH]2)cc1` [Azilsartan] yielded a remaining activity at 1.25 µM ([1]; Well no.=5416) of 97.2%, a remaining activity at 1.25 µM ([1]; Well no.=6813) of 90.2% and a remaining activity at 3.75 µM ([2]; Well no.=5416) of 95.7%. It also gave a remaining activity at 3.75 µM ([2]; Well no.=6813) of 89.9%.
`Cc1cccc(C)c1OCC(=O)N[C@@H](Cc1ccccc1)[C@@H](O)C[C@H](Cc1ccccc1)NC(=O)[C@H](C(C)C)N1CCCNC1=O` [Lopinavir] showed a remaining activity at 1.25 µM ([1]; Well no.=9076) of 83.9% and a remaining activity at 3.75 µM ([2]; Well no.=9076) of 84.3%.
With `CCN1CCN(C(=O)N[C@@H](C(=O)N[C@@H]2C(=O)N3[C@@H]2SC(C)(C)[C@@H]3C(=O)O)c2ccccc2)C(=O)C1=O` [Piperacillin (sodium)] the remaining activity at 1.25 µM ([1]; Well no.=8072) was 96.2% and the remaining activity at 3.75 µM ([2]; Well no.=8072) was 91.7%.
`CC(C)NCC(O)c1ccc(NS(C)(=O)=O)cc1` (stereo not drawn) [Sotalol.HCl] showed a remaining activity at 1.25 µM ([1]; Well no.=1785) of 103% and a remaining activity at 3.75 µM ([2]; Well no.=1785) of 102%.
Work on `OC[C@@H]1CCCN2CCCC[C@H]12` [Lupinine] yielded a remaining activity at 1.25 µM ([1]; Well no.=3609) of 104% and a remaining activity at 3.75 µM ([2]; Well no.=3609) of 107%.
`NC(=O)c1nnn(Cc2cc(Cl)c(C(=O)c3ccc(Cl)cc3)c(Cl)c2)c1N` [Carboxyamidotriazole] was tested, and the remaining activity at 1.25 µM ([1]; Well no.=5819) was 94.7% and the remaining activity at 3.75 µM ([2]; Well no.=5819) was 89.8%.
`COc1ccccc1OCC(O)CN1CCN(CC(=O)Nc2c(C)cccc2C)CC1` (stereo not drawn) [Ranolazine dihydrochloride] gave a remaining activity at 1.25 µM ([1]; Well no.=1254) of 108% and a remaining activity at 3.75 µM ([2]; Well no.=1254) of 106%.
For `CNc1ccc2oc(C[C@H]3O[C@@]4(CC[C@H]3C)O[C@H]([C@H](C)C(=O)c3ccc[nH]3)[C@H](C)C[C@H]4C)nc2c1C(=O)O` [Antibiotic A-23187], the remaining activity at 1.25 µM ([1]; Well no.=3079) was 103% and the remaining activity at 3.75 µM ([2]; Well no.=3079) was 104%.
In the case of `COc1ccc2[nH]c([S+]([O-])Cc3ncc(C)c(OC)c3C)nc2n1` (stereo not drawn) [Tenatoprazole], the remaining activity at 1.25 µM ([1]; Well no.=1950) is reported as 98.5% and the remaining activity at 3.75 µM ([2]; Well no.=1950) is reported as 95.8%.
`O=c1[nH]c(=O)n([C@H]2C[C@H](O)[C@@H](CO)O2)cc1C(F)(F)F` [Trifluridine] showed a remaining activity at 1.25 µM ([1]; Well no.=6438) of 98%, a remaining activity at 1.25 µM ([1]; Well no.=8058) of 85.9% and a remaining activity at 3.75 µM ([2]; Well no.=6438) of 98.3%. The remaining activity at 3.75 µM ([2]; Well no.=8058) was 86.7%.
`CN1C[C@H](C(=O)N[C@]2(C)O[C@@]3(O)[C@@H]4CCCN4C(=O)[C@H](Cc4ccccc4)N3C2=O)C[C@@H]2c3cccc4[nH]cc(c34)C[C@H]21` [Dihydroergotamine methanesulfonate] showed a remaining activity at 1.25 µM ([1]; Well no.=543) of 102% and a remaining activity at 3.75 µM ([2]; Well no.=543) of 104%.
`C#C[C@]1(O)CC[C@H]2[C@@H]3CCC4=Cc5oncc5C[C@]4(C)[C@H]3CC[C@@]21C` [Danazol] was tested, and the remaining activity at 1.25 µM ([1]; Well no.=584) was 94.6%, the remaining activity at 1.25 µM ([1]; Well no.=1942) was 105% and the remaining activity at 3.75 µM ([2]; Well no.=584) was 97%. The remaining activity at 3.75 µM ([2]; Well no.=1942) was 106%.
Compound `C[C@H]1[C@H](C)CC[C@]2(C(=O)O)CC[C@]3(C)C(=CC[C@@H]4[C@@]5(C)CCC(=O)C(C)(C)[C@@H]5CC[C@]43C)[C@H]12` [Ursonic acid] has a remaining activity at 1.25 µM ([1]; Well no.=6448) of 98.3% and a remaining activity at 3.75 µM ([2]; Well no.=6448) of 98.4%.
